# “Also recorded” adds a separate entry of the source.
# Legend:
# Type in all cases: in vivo, humans
# [1] = system: NQO1; assay: Plasma and urinary NQO1 responses to 90 mg SnPP infusion
# Protocol: Values are means/95% confidence intervals; urine values are after log base 10 conversion; statistics by ANOVA repeated measures, in-group comparisons.
# (§1) Baseline and maximal (peak) plasma anti-oxidant protein concentrations, as generated with the highest test dose of SnPP (90 mg). CKD=CKD 3 and CKD 4 groups combined. […] The values presented are means and 95% confidence intervals. Please see the figures for change of values over time and statistics by ANOVA for repeated measures. […] The timing of the peak values were 4 days, 12 hrs, 12 hrs and 4 hrs for HO-1, ferritin, p21, and NQO1, respectively.
# [2] = system: p21; assay: Plasma p21 concentrations following SnPP injection
# Protocol: There were marked variations in p21 values between participants, as reflected by large standard deviations (SDs: numbers in parentheses that appear at the bottom of the graph). (HVs=healthy volunteers; BL=baseline).
# as §1
# [3] = Estimated glomerular filtration rate after administration of 90 mg tin protoporphyrin; conditions: mean ± 1 SD
# [4] = system: HO-1; assay: Plasma HO-1 levels following SnPP injection
# Protocol: Plasma HO-1 levels were measured at baseline and from 1-4 days following 9, 27, or 90 mg SnPP injection. Time and dose dependent increases were observed (mean values/95% confidence intervals depicted).
# The plasma HO-1 levels rose following SnPP injection in stage 3 CKD ([…]) and stage 4 CKD ([…]) participants as shown in FIG. 2. Plasma HO-1 levels were measured at baseline and from 1-4 days following 27 mg or 90 mg SnPP injection. […] P<0.001, all in-group comparisons; ANOVA, repeated measures. The mean values/95% confidence intervals are depicted.
# as §1
# [5] = system: ferritin; assay: Plasma ferritin levels following SnPP injection
# Protocol: Plasma ferritin levels were measured at baseline and 24+48 hrs following 90 mg SnPP injection in healthy volunteers and in CKD3/CKD4 participants. […] Means/95% confidence intervals are depicted.
# as §1
# [6] = Urine biomarkers of kidney injury after administration of 90 mg tin protoporphyrin
# [7] = 90 mg SnPP, healthy volunteers and CKD combined
smiles,measurement,setting,value
"C=Cc1c2[n-]c(c1C)/C=c1\[n-]/c(c(C)c1C=C)=C\c1[n-]c(c(CCC(=O)O)c1C)/C=c1\[n-]c(c(C)c1CCC(=O)O)=C2.[Sn+4] [SnPP, tin protoporphyrin]","timing of the peak plasma value, NQO1",[1]; 90 mg SnPP,4 h
same,peak plasma NQO1 value vs baseline,[1]; [7],significantly higher than baseline values
same,plasma NQO1,"[1]; healthy volunteer and CKD participants, 90 mg SnPP injection","acute, near identical increases"
same,urinary NQO1/creatinine levels,"[1]; healthy volunteers and combined CKD participants, 72 hr observation period, 90 mg SnPP","significant, and progressive increases"
same,"p21 response, CKD group compared to healthy volunteer group",[2]; 90 mg SnPP,significantly blunted p21 response
same,"timing of the peak plasma value, p21",[2]; 90 mg SnPP,12 h
same,peak plasma p21 value vs baseline,[2]; [7],significantly higher than baseline values
same,plasma p21 fold increase over baseline (mean),[2]; CKD group (combined),0.51
same,plasma p21,"[2]; healthy volunteer and CKD participants, 12 and 24 hrs post SnPP injection",plasma p21 increases
same,plasma p21 fold increase over baseline (mean),[2]; healthy volunteer group,2.65
same,eGFR,"[3]; CKD3, Day 2 post SnPP 90 mg",50 ± 6 ml/min/1.73 m^2
same,eGFR,"[3]; CKD3, Day 4 post SnPP 90 mg",47 ± 6 ml/min/1.73 m^2
same,eGFR,"[3]; CKD4, Day 2 post SnPP 90 mg",23 ± 5 ml/min/1.73 m^2
same,eGFR,"[3]; CKD4, Day 4 post SnPP 90 mg",22 ± 4 ml/min/1.73 m^2
same,eGFR,"[3]; Healthy Volunteers, Day 2 post SnPP 90 mg",87 ± 5 ml/min/1.73 m^2
same,eGFR,"[3]; Healthy Volunteers, Day 4 post SnPP 90 mg",88 ± 4 ml/min/1.73 m^2
same,"timing of the peak plasma value, HO-1",[4]; 90 mg SnPP,4 days
same,peak plasma HO-1 value vs baseline,[4]; [7],significantly higher than baseline values
same,plasma HO-1 levels,"[4]; healthy volunteers, baseline and 1-4 days following 9, 27, or 90 mg SnPP injection",rise in a dose dependent fashion; also recorded: rose in a dose dependent fashion
same,plasma HO-1 levels,"[4]; stage 3 CKD and stage 4 CKD participants, 1-4 days following 27 mg or 90 mg SnPP injection",rise and Time and dose dependent HO-1 increases
same,"timing of the peak plasma value, ferritin",[5]; 90 mg SnPP,12 h
same,"plasma ferritin increases over baseline, CKD vs healthy volunteer groups",[5]; 90 mg SnPP injection,comparable
same,peak plasma ferritin value vs baseline,[5]; [7],significantly higher than baseline values
same,plasma ferritin levels,"[5]; baseline and 24+48 hrs following 90 mg SnPP injection, healthy volunteers and CKD3/CKD4",increase; also recorded: significant plasma ferritin increases
same,urine Cystatin C,"[6]; CKD 3, Day 1, mean ± 1 SD",26.8 ± 12.9 ng/mg Cr
same,urine KIM-1,"[6]; CKD 3, Day 1, mean ± 1 SD",0.8 ± 0.2 ng/mg Cr
same,urine NAG,"[6]; CKD 3, Day 1, mean ± 1 SD",5.66 ± 3.44 mU/mg Cr
same,urine NGAL,"[6]; CKD 3, Day 1, mean ± 1 SD",46.5 ± 35.3 ng/mg Cr
same,urine Cystatin C,"[6]; CKD 3, Day 2, mean ± 1 SD",32.2 ± 9.8 ng/mg Cr
same,urine KIM-1,"[6]; CKD 3, Day 2, mean ± 1 SD",1.5 ± 0.6 ng/mg Cr
same,urine NAG,"[6]; CKD 3, Day 2, mean ± 1 SD",8.2 ± 3.44 mU/mg Cr
same,urine NGAL,"[6]; CKD 3, Day 2, mean ± 1 SD",35.8 ± 23.2 ng/mg Cr
same,urine Cystatin C,"[6]; CKD 3, Day 3, mean ± 1 SD",34.0 ± 9.4 ng/mg Cr
same,urine KIM-1,"[6]; CKD 3, Day 3, mean ± 1 SD",1.4 ± 0.6 ng/mg Cr
same,urine NAG,"[6]; CKD 3, Day 3, mean ± 1 SD",6.5 ± 1.7 mU/mg Cr
same,urine NGAL,"[6]; CKD 3, Day 3, mean ± 1 SD",49.8 ± 39.7 ng/mg Cr
same,urine Cystatin C,"[6]; CKD 3, Day 4, mean ± 1 SD",33.2 ± 33.2 ng/mg Cr
same,urine KIM-1,"[6]; CKD 3, Day 4, mean ± 1 SD",0.9 ± 0.2 ng/mg Cr
same,urine NAG,"[6]; CKD 3, Day 4, mean ± 1 SD",5.9 ± 2.1 mU/mg Cr
same,urine NGAL,"[6]; CKD 3, Day 4, mean ± 1 SD",42.6 ± 51.7 ng/mg Cr
same,urine Cystatin C,"[6]; CKD 4, Day 1, mean ± 1 SD",332 ± 519 ng/mg Cr
same,urine KIM-1,"[6]; CKD 4, Day 1, mean ± 1 SD",0.8 ± 1.0 ng/mg Cr
same,urine NAG,"[6]; CKD 4, Day 1, mean ± 1 SD",12.5 ± 11.34 mU/mg Cr
same,urine NGAL,"[6]; CKD 4, Day 1, mean ± 1 SD",58.0 ± 79.1 ng/mg Cr
same,urine Cystatin C,"[6]; CKD 4, Day 2, mean ± 1 SD",638 ± 965 ng/mg Cr
same,urine KIM-1,"[6]; CKD 4, Day 2, mean ± 1 SD",1.2 ± 1.0 ng/mg Cr
same,urine NAG,"[6]; CKD 4, Day 2, mean ± 1 SD",10.6 ± 7.5 mU/mg Cr
same,urine NGAL,"[6]; CKD 4, Day 2, mean ± 1 SD",64.8 ± 91.0 ng/mg Cr
same,urine Cystatin C,"[6]; CKD 4, Day 3, mean ± 1 SD",186 ± 213 ng/mg Cr
same,urine KIM-1,"[6]; CKD 4, Day 3, mean ± 1 SD",1.2 ± 1.0 ng/mg Cr
same,urine NAG,"[6]; CKD 4, Day 3, mean ± 1 SD",10.5 ± 5.6 mU/mg Cr
same,urine NGAL,"[6]; CKD 4, Day 3, mean ± 1 SD",47.3 ± 60.2 ng/mg Cr
same,urine Cystatin C,"[6]; CKD 4, Day 4, mean ± 1 SD",207 ± 238 ng/mg Cr
same,urine KIM-1,"[6]; CKD 4, Day 4, mean ± 1 SD",1.0 ± 0.8 ng/mg Cr
same,urine NAG,"[6]; CKD 4, Day 4, mean ± 1 SD",6.2 ± 3.4 mU/mg Cr
same,urine NGAL,"[6]; CKD 4, Day 4, mean ± 1 SD",48.0 ± 49.5 ng/mg Cr
same,urine Cystatin C,"[6]; HVs, Day 1, mean ± 1 SD",32.1 ± 15.1 ng/mg Cr
same,urine KIM-1,"[6]; HVs, Day 1, mean ± 1 SD",0.7 ± 0.5 ng/mg Cr
same,urine NGAL,"[6]; HVs, Day 1, mean ± 1 SD",21.1 ± 28.7 ng/mg Cr
same,urine Cystatin C,"[6]; HVs, Day 2, mean ± 1 SD",34.8 ± 7.2 ng/mg Cr
same,urine KIM-1,"[6]; HVs, Day 2, mean ± 1 SD",0.8 ± 0.7 ng/mg Cr
same,urine NAG,"[6]; HVs, Day 2, mean ± 1 SD",3.16 ± 1.16 mU/mg Cr
same,urine NGAL,"[6]; HVs, Day 2, mean ± 1 SD",14.8 ± 13.1 ng/mg Cr
same,urine Cystatin C,"[6]; HVs, Day 3, mean ± 1 SD",39.6 ± 9.4 ng/mg Cr
same,urine KIM-1,"[6]; HVs, Day 3, mean ± 1 SD",0.7 ± 0.4 ng/mg Cr
same,urine NAG,"[6]; HVs, Day 3, mean ± 1 SD",2.51 ± 0.64 mU/mg Cr
same,urine NGAL,"[6]; HVs, Day 3, mean ± 1 SD",14.0 ± 8.7 ng/mg Cr
same,urine Cystatin C,"[6]; HVs, Day 4, mean ± 1 SD",40.4 ± 9.3 ng/mg Cr
same,urine KIM-1,"[6]; HVs, Day 4, mean ± 1 SD",0.6 ± 0.4 ng/mg Cr
same,urine NAG,"[6]; HVs, Day 4, mean ± 1 SD",2.66 ± 0.8 mU/mg Cr
same,urine NGAL,"[6]; HVs, Day 4, mean ± 1 SD",10.2 ± 5.6 ng/mg Cr
